Measured values as given in patent publication US20250197376A1, “PYRAZINE AMIDE DERIVATIVES” (Novartis AG, priority 2022, published 2025).

The compounds below were run on 3D7 P. falciparum strain (assay: P. falciparum 3D7 parasite proliferation assay (SYBR Green)). Settings: Plasmodium falciparum, Erythrocyte; 3D7 P. falciparum infected human erythrocytes, 72 hours, SYBR Green fluorescence; read-out: Pf3D7 Activity.
Assay type: cell-based
Procedure: The following assay illustrates the invention without in any way limiting the scope of the invention. This parasite proliferation assay measures the increase in parasite DNA content using a DNA intercalating dye, SYBR Green®. 3D7 P. falciparum strain is grown in complete culturing media until parasitemia reaches 3% to 8% with O+ human erythrocytes. 20 μl of screening media is dispensed into 384 well assay plates. 50 nl of compounds of the invention (in DMSO), including antimalarial controls (mefloquine, pyrimethamine and artemisinin), are then transferred into the assay plates, as well as DMSO alone to serve as a negative control for inhibition. Then 30 μl of a suspension of a 3D7 P. falciparum infected erythrocytes in screening media is dispensed into the assay plates such that the final hematocrit is 2.5% with a final parasitemia of 0.3%. The plates are placed in a 37° C. incubator for 72 hours in a low oxygen environment containing 93% N2, 4% CO2, and 3% O2 gas mixture. 10 μl of lysis buffer (saponin, triton-X, EDTA) containing a 10× solution of SYBR Green […] in RPMI media is dispensed into the plates. The plates are lidded and kept at room temperature overnight for the lysis of the infected red blood cells. The fluorescence intensity is measured (excitation […], emission 530 nm) using the Envision™ system (Perkin Elmer). The percentage inhibition of 50%, EC50, is calculated for each compound.
`CC(C)(N)CNC(=O)c1cncc(-c2cc3ccccc3[nH]2)n1` [Example 35, N-(2-amino-2-methylpropyl)-6-(1H-indol-2-yl)pyrazine-2-carboxamide] gave an EC50 of over 100 nM. With `COc1cc2[nH]c(-c3cncc(C(=O)NCC(C)(C)N)n3)cc2cc1F` [Example 36, N-(2-amino-2-methylpropyl)-6-(5-fluoro-6-methoxy-1H-indol-2-yl)pyrazine-2-carboxamide] the EC50 was over 100 nM. In the case of `CC(C)(N)CNC(=O)c1cncc(-c2cc3cc(Cl)nc(Cl)c3[nH]2)n1` [Example 38, N-(2-amino-2-methylpropyl)-6-(5,7-dichloro-1H-pyrrolo[2,3-c]pyridin-2-yl)pyrazine-2-carboxamide], the EC50 is reported as over 100 nM. In the case of `CC(C)(N)CNC(=O)c1cncc(-c2cc3cc(Cl)ncc3[nH]2)n1` [Example 39, N-(2-amino-2-methylpropyl)-6-(5-chloro-1H-pyrrolo[2,3-c]pyridin-2-yl)pyrazine-2-carboxamide], the EC50 is reported as over 100 nM. For `CC(C)(N)CNC(=O)c1cncc(-c2cc3cnc(Cl)cc3[nH]2)n1` [Example 40, N-(2-amino-2-methylpropyl)-6-(6-chloro-1H-pyrrolo[3,2-c]pyridin-2-yl)pyrazine-2-carboxamide], the EC50 was over 100 nM. `CC(C)(N)CNC(=O)c1cncc(-c2cc3c(Cl)nccc3[nH]2)n1` [Example 41, N-(2-amino-2-methylpropyl)-6-(4-chloro-1H-pyrrolo[3,2-c]pyridin-2-yl)pyrazine-2-carboxamide] gave an EC50 of over 100 nM. `CC(C)(N)CNC(=O)c1cncc(-c2cc3ccnc(Cl)c3[nH]2)n1` [Example 42, N-(2-amino-2-methylpropyl)-6-(7-chloro-1H-pyrrolo[2,3-c]pyridin-2-yl)pyrazine-2-carboxamide] was tested, and the EC50 was over 100 nM. `CC(C)(N)CNC(=O)c1cncc(-c2cc3ccncc3[nH]2)n1` [Example 43, N-(2-amino-2-methylpropyl)-6-(1H-pyrrolo[2,3-c]pyridin-2-yl)pyrazine-2-carboxamide] showed an EC50 of over 100 nM. For `COc1cccc2cc(-c3cncc(C(=O)NCC(C)(C)N)n3)[nH]c12` [Example 44, N-(2-amino-2-methylpropyl)-6-(7-methoxy-1H-indol-2-yl)pyrazine-2-carboxamide], the EC50 was over 100 nM. `Cc1ccc2c(C)c(-c3cncc(C(=O)NCC(C)(C)N)n3)[nH]c2c1` [Example 45, N-(2-Amino-2-methylpropyl)-6-(3,6-dimethyl-1H-indol-2-yl)pyrazine-2-carboxamide] gave an EC50 of under 10 nM. Compound `CC(C)(N)CNC(=O)c1cncc(-c2cc3cc(S(F)(F)(F)(F)F)ccc3[nH]2)n1` [Example 46, N-(2-amino-2-methylpropyl)-6-(5-(pentafluoro-λ^6-sulfaneyl)-1H-indol-2-yl)pyrazine-2-carboxamide] has an EC50 of 10 to 100 nM. Compound `CC(C)(N)CNC(=O)c1cncc(-c2cc3ccc(OC(F)(F)F)cc3[nH]2)n1` [Example 47, N-(2-amino-2-methylpropyl)-6-(6-(trifluoromethoxy)-1H-indol-2-yl)pyrazine-2-carboxamide] has an EC50 of 10 to 100 nM. With `COC(=O)c1ccc2[nH]c(-c3cncc(C(=O)NCC(C)(C)N)n3)c(C)c2c1` [Example 48, Methyl 2-(6-((2-amino-2-methylpropyl)carbamoyl)pyrazin-2-yl)-3-methyl-1H-indole-5-carboxylate] the EC50 was 10 to 100 nM. Compound `CC(C)(N)CNC(=O)c1cncc(-c2[nH]c3ccccc3c2Cl)n1` [Example 49, N-(2-amino-2-methylpropyl)-6-(3-chloro-1H-indol-2-yl)pyrazine-2-carboxamide] has an EC50 of 10 to 100 nM. `CCc1c(-c2cncc(C(=O)NCC(C)(C)N)n2)[nH]c2ccccc12` [Example 50, N-(2-amino-2-methylpropyl)-6-(3-ethyl-1H-indol-2-yl)pyrazine-2-carboxamide] was tested, and the EC50 was 10 to 100 nM. `Cc1c(-c2cncc(C(=O)NCC(C)(C)N)n2)[nH]c2c1CCCC2` [Example 51, N-(2-amino-2-methylpropyl)-6-(3-methyl-4,5,6,7-tetrahydro-1H-indol-2-yl)pyrazine-2-carboxamide] gave an EC50 of 10 to 100 nM. `CC(C)c1c(-c2cncc(C(=O)NCC(C)(C)N)n2)[nH]c2ccccc12` [Example 52, N-(2-amino-2-methylpropyl)-6-(3-isopropyl-1H-indol-2-yl)pyrazine-2-carboxamide] gave an EC50 of 10 to 100 nM. In the case of `CCOC(=O)c1cc2[nH]c(-c3cncc(C(=O)NCC(C)(C)N)n3)cc2s1` [Example 53, Ethyl 5-(6-((2-amino-2-methylpropyl)carbamoyl)pyrazin-2-yl)-4H-thieno[3,2-b]pyrrole-2-carboxylate], the EC50 is reported as 10 to 100 nM. `CC(C)(N)CNC(=O)c1cncc(-c2[nH]c3ccccc3c2C(F)(F)F)n1` [Example 54, N-(2-amino-2-methylpropyl)-6-(3-(trifluoromethyl)-1H-indol-2-yl)pyrazine-2-carboxamide] showed an EC50 of over 100 nM. `Cc1c(-c2cncc(C(=O)NCC(C)(C)N)n2)[nH]c2c1C(=O)CC(C)(C)C2` [Example 56, N-(2-amino-2-methylpropyl)-6-(3,6,6-trimethyl-4-oxo-4,5,6,7-tetrahydro-1H-indol-2-yl)pyrazine-2-carboxamide] was tested, and the EC50 was over 100 nM. `CC(C)(N)CNC(=O)c1cncc(-c2[nH]c3ccccc3c2C#N)n1` [Example 57, N-(2-amino-2-methylpropyl)-6-(3-cyano-1H-indol-2-yl)pyrazine-2-carboxamide] showed an EC50 of over 100 nM. `Cc1c(-c2cncc(C(=O)NCC3(N)CCC3)n2)[nH]c2ccc(OC(F)(F)F)cc12` [Example 58, N-((1-aminocyclobutyl)methyl)-6-(3-methyl-5-(trifluoromethoxy)-1H-indol-2-yl)pyrazine-2-carboxamide] showed an EC50 of under 10 nM. `Cc1c(-c2cncc(C(=O)NCCC(C)(C)N)n2)[nH]c2ccc(OC(F)(F)F)cc12` [Example 59, N-(3-amino-3-methylbutyl)-6-(3-methyl-5-(trifluoromethoxy)-1H-indol-2-yl)pyrazine-2-carboxamide] gave an EC50 of under 10 nM. Work on `Cc1c(-c2cncc(C(=O)NCCN)n2)[nH]c2ccc(OC(F)(F)F)cc12` [Example 60, N-(2-aminoethyl)-6-(3-methyl-5-(trifluoromethoxy)-1H-indol-2-yl)pyrazine-2-carboxamide] yielded an EC50 of 10 to 100 nM. Work on `Cc1c(-c2cncc(C(=O)NCC3(N)CCOCC3)n2)[nH]c2ccc(OC(F)(F)F)cc12` [Example 61, N-((4-aminotetrahydro-2H-pyran-4-yl)methyl)-6-(3-methyl-5-(trifluoromethoxy)-1H-indol-2-yl)pyrazine-2-carboxamide] yielded an EC50 of 10 to 100 nM. `Cc1c(-c2cncc(C(=O)N(C)CC(C)(C)N)n2)[nH]c2ccc(OC(F)(F)F)cc12` [Example 62, N-(2-amino-2-methylpropyl)-N-methyl-6-(3-methyl-5-(trifluoromethoxy)-1H-indol-2-yl)pyrazine-2-carboxamide] showed an EC50 of 10 to 100 nM. Work on `Cc1c(-c2cncc(C(=O)NCCCN)n2)[nH]c2ccc(OC(F)(F)F)cc12` [Example 63, N-(3-aminopropyl)-6-(3-methyl-5-(trifluoromethoxy)-1H-indol-2-yl)pyrazine-2-carboxamide] yielded an EC50 of 10 to 100 nM. Compound `Cc1c(-c2cncc(C(=O)NC34CC(N)(C3)C4)n2)[nH]c2ccc(OC(F)(F)F)cc12` [Example 64, N-(3-aminobicyclo[1.1.1]pentan-1-yl)-6-(3-methyl-5-(trifluoromethoxy)-1H-indol-2-yl)pyrazine-2-carboxamide] has an EC50 of 10 to 100 nM. `Cc1c(-c2cncc(C(=O)N[C@H]3CC[C@H](N)CC3)n2)[nH]c2ccc(OC(F)(F)F)cc12` [Example 65, N-((1r,4r)-4-aminocyclohexyl)-6-(3-methyl-5-(trifluoromethoxy)-1H-indol-2-yl)pyrazine-2-carboxamide] was tested, and the EC50 was 10 to 100 nM. `Cc1c(-c2cncc(C(=O)N(C)CC(C)(C)N)n2)[nH]c2ccccc12` [Example 66, N-(2-amino-2-methylpropyl)-N-methyl-6-(3-methyl-1H-indol-2-yl)pyrazine-2-carboxamide] showed an EC50 of over 100 nM. For `N[C@H]1CC[C@H](NC(=O)c2cncc(-c3cc4cc(OC(F)(F)F)ccc4[nH]3)n2)CC1` [Example 67, N-((1r,4r)-4-aminocyclohexyl)-6-(5-(trifluoromethoxy)-1H-indol-2-yl)pyrazine-2-carboxamide], the EC50 was over 100 nM. Work on `Cc1c(-c2cncc(C(=O)NCC(C)(C)C)n2)[nH]c2ccccc12` [Example 68, 6-(3-methyl-1H-indol-2-yl)-N-neopentylpyrazine-2-carboxamide] yielded an EC50 of over 100 nM. Compound `Cc1c(-c2cncc(C(=O)NCC(C)(C)N)n2)[nH]c2cc(OC(F)F)ccc12` [Example 69, N-(2-Amino-2-methylpropyl)-6-(6-(difluoromethoxy)-3-methyl-1H-indol-2-yl)pyrazine-2-carboxamide] has an EC50 of 10 to 100 nM. With `Cc1c(-c2cncc(C(=O)NCC(C)(C)N)n2)[nH]c2ccc(OC(F)F)cc12` [Example 70, N-(2-amino-2-methylpropyl)-6-(5-(difluoromethoxy)-3-methyl-1H-indol-2-yl)pyrazine-2-carboxamide] the EC50 was 10 to 100 nM. Work on `Cc1c(-c2cncc(C(=O)NCC(C)(C)N)n2)[nH]c2ccc(CN)cc12` [Example 71, N-(2-amino-2-methylpropyl)-6-(5-(aminomethyl)-3-methyl-1H-indol-2-yl)pyrazine-2-carboxamide] yielded an EC50 of over 100 nM. With `CCOC(=O)c1cc2[nH]c(-c3cncc(C(=O)NCC(C)(C)N)n3)c(C)c2s1` [Example 72, Ethyl 5-(6-((2-amino-2-methylpropyl)carbamoyl)pyrazin-2-yl)-6-methyl-4H-thieno[3,2-b]pyrrole-2-carboxylate] the EC50 was under 10 nM.
